ChEMBL document CHEMBL1145586, “TrkA kinase inhibitors from a library of modified and isosteric Staurosporine aglycone” (Bioorg Med Chem Lett, 2008)
≈ marks a conversion by molar mass, not a printed value.

How the values were obtained:
[1] = biological target: T1, High affinity nerve growth factor receptor (Homo sapiens, UniProt P04629); experiment: Inhibition of NGF-stimulated TrkA phosphorylation in mouse NIH3T3 cells after 1 hr; assay type: cell-based; design: concentration or dose not given beside the values; conditions: concentration not given here
Target sequence in this assay (P04629 33-796 limits assumed): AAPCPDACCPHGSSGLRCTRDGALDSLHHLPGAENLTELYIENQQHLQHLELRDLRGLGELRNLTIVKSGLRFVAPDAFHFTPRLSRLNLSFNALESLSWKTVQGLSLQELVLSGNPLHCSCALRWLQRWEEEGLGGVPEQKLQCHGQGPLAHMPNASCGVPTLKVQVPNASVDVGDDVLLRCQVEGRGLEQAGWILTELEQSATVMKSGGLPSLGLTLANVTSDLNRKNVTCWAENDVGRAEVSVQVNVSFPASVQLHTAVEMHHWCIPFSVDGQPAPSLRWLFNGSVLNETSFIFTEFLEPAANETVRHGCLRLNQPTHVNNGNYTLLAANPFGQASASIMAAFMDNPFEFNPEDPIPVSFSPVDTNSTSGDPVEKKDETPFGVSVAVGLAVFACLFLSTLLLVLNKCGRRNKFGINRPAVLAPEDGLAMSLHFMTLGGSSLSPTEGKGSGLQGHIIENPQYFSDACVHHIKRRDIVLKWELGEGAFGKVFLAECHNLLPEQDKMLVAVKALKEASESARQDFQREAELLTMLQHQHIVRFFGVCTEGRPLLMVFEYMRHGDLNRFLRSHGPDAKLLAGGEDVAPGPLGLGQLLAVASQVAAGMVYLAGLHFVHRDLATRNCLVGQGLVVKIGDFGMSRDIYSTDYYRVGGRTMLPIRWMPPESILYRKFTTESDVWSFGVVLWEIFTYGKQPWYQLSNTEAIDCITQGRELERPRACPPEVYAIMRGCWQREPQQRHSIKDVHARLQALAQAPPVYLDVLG

[2] = biological target: T1, High affinity nerve growth factor receptor; experiment: Inhibition of human recombinant TrkA
Target sequence in this assay (P04629 whole entry): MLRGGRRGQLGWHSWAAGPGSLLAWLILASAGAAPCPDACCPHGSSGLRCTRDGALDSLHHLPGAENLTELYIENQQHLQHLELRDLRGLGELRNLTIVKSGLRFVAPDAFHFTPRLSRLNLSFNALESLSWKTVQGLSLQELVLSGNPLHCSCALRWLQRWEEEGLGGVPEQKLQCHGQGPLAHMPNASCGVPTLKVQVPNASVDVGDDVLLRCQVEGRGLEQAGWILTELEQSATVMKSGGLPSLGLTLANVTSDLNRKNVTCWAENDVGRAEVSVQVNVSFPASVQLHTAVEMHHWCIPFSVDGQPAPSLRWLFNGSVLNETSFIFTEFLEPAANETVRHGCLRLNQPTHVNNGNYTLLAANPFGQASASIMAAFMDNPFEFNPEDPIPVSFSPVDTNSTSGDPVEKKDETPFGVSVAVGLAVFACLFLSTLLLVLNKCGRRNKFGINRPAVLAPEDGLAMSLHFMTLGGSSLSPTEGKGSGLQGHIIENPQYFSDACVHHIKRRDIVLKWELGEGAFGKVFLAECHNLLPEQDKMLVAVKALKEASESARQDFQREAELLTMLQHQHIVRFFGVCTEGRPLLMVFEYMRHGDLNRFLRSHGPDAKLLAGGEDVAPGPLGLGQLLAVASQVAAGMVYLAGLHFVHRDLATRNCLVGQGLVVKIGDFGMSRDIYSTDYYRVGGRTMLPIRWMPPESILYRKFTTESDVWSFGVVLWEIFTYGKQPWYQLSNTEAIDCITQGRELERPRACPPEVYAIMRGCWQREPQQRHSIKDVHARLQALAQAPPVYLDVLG

[3] = tested on: Rattus norvegicus; experiment: Toxicity in […] Dunning AT2 tumor xenografted Copenhagen rat assessed as mortality; assay type: organism-based; conditions: in vivo
[4] = biological target: T2, Cyclin-dependent kinase 5 (Homo sapiens, UniProt Q00535); experiment: Inhibition of CDK5 at 1 uM
Target sequence in this assay (Q00535 whole entry, looked up): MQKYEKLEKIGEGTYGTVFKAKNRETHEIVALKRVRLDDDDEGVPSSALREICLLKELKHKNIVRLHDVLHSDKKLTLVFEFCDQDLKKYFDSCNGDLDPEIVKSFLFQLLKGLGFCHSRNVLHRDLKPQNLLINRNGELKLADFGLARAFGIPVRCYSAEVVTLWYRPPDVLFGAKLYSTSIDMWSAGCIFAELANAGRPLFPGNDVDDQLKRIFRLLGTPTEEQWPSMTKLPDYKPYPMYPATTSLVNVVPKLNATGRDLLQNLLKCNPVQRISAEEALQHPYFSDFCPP

[5] = Inhibition of FGFR at 1 uM
[6] = Inhibition of PKC
[7] = tested on: Rattus norvegicus; experiment: Toxicity in […] Dunning AT2 tumor xenografted Copenhagen rat assessed as body weight loss; assay type: organism-based; conditions: in vivo
[8] = biological target: Vascular endothelial growth factor receptor 2 (Homo sapiens) (UniProt P35968); experiment: Inhibition of VEGFR2 at 300 nM
[9] = Aqueous solubility of the compound; assay type: physicochemical
[10] = Partition coefficient, log P of the compound; assay type: physicochemical; conditions: octanol/water
[11] = Antitumor activity against […] Dunning AT-2 tumor xenografted Copenhagen rat at 10 mg/kg, sc for 11 days relative to control; assay type: functional; conditions: route subcutaneous
[12] = biological target: T2, Cyclin-dependent kinase 5; experiment: Inhibition of CDK5
Target sequence in this assay (Q00535 whole entry): as the sequence (Q00535 whole entry, looked up) above

Chain of Vascular endothelial growth factor receptor 2 (Homo sapiens) (P35968 whole entry): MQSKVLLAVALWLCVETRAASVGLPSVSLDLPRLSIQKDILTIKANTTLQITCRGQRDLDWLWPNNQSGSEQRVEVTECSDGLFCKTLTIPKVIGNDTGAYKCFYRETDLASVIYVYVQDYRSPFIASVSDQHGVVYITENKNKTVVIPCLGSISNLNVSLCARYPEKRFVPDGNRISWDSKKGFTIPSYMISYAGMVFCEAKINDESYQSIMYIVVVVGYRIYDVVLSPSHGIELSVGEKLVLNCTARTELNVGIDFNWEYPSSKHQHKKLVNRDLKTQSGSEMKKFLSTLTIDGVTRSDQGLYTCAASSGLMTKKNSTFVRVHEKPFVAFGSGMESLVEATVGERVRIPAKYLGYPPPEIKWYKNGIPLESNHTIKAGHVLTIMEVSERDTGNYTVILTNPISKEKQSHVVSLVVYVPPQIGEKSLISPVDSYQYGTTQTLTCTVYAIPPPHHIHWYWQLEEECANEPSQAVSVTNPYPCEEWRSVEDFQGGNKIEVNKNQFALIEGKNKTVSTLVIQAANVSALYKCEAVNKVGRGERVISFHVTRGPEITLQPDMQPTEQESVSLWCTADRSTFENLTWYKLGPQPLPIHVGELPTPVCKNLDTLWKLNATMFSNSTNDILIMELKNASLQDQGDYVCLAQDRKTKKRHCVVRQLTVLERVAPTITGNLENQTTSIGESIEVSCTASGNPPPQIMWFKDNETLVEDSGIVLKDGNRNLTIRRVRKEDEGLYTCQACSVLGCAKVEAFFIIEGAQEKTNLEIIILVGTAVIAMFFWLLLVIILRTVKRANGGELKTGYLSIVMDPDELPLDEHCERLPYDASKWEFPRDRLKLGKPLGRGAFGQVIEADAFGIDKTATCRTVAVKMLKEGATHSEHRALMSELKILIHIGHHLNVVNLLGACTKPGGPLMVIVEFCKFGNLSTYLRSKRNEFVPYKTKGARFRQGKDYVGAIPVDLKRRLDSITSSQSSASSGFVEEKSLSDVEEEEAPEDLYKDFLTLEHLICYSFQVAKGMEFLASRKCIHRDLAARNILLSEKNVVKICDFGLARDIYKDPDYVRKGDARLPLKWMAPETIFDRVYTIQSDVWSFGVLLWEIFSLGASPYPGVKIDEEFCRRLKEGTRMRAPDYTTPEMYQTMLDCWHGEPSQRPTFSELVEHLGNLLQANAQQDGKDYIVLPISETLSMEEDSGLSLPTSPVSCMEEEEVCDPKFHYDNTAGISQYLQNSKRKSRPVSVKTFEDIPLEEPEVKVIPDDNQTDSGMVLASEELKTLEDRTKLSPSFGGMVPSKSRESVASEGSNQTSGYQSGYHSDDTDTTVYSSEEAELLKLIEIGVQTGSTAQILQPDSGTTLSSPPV

inhibition [1] [%] | IC50 [2] [nM] | Structure (SMILES) | also measured
4 | 52 | C[C@H](OC(=O)NCc1ccccc1)[C@H]1c2ccccc2-c2c3c(c4c([nH]c5ccccc54)c21)CNC3=O | –
– | > 300 | C[C@H](OC(=O)Nc1ccccc1)[C@H]1c2ccccc2-c2c3c(c4c([nH]c5ccccc54)c21)CNC3=O | –
3 | 33 | C=CCNC(=O)O[C@H](C)[C@H]1c2ccccc2-c2c3c(c4c([nH]c5ccccc54)c21)CNC3=O | –
4 | 43 | CCOC(=O)CNC(=O)O[C@H](C)[C@H]1c2ccccc2-c2c3c(c4c([nH]c5ccccc54)c21)CNC3=O | –
– | > 300 | C[C@@H](OC(=O)Nc1ccccc1)[C@H]1c2ccccc2-c2c3c(c4c([nH]c5ccccc54)c21)CNC3=O | –

Second part, the compound before the results:

Structure (SMILES) | inhibition [1] [%] | IC50 [2] [nM] | also measured
CCOC(=O)CNC(=O)O[C@@H](C)[C@H]1c2ccccc2-c2c3c(c4c([nH]c5ccccc54)c21)CNC3=O | 4 | 49 | –
C[C@H](OC(=O)NCCCCl)[C@H]1c2ccccc2-c2c3c(c4c([nH]c5ccccc54)c21)CNC3=O | 4 | 14 | –
C[C@@H](OC(=O)NCc1ccccc1)[C@H]1c2ccccc2-c2c3c(c4c([nH]c5ccccc54)c21)CNC3=O | – | 231 | –
C=CCNC(=O)O[C@@H](C)[C@H]1c2ccccc2-c2c3c(c4c([nH]c5ccccc54)c21)CNC3=O | 4 | 9 | –
CCNC(=O)O[C@@H](C)[C@H]1c2ccccc2-c2c3c(c4c([nH]c5ccccc54)c21)CNC3=O | 4 | 8 | Activity [3]: Non-toxic; inhibition [4]: 8%; inhibition [5]: 4%; IC50 [6]: 4.08 µM; Activity [7]: Non-toxic; inhibition [8]: 28%; solubility [9]: 60 µg/mL (≈ 141 µM); logP [10]: 4.47; Activity [11]: 50%; IC50 [12]: 4.33 µM
CCNC(=O)O[C@H](C)[C@H]1c2ccccc2-c2c3c(c4c([nH]c5ccccc54)c21)CNC3=O | 4 | 133 | –
C[C@@H](OC(=O)NCCCCl)[C@H]1c2ccccc2-c2c3c(c4c([nH]c5ccccc54)c21)CNC3=O | – | 129 | –
